Reference: patent publication US9012628B2, “Crystalline form of ertapenem sodium and preparation method therefor” (CSPC Zhongqi Pharmaceutical Technology (Shijiazhuang) Co. …, priority 2010, dated 2015)

Assay: Comparative tests for stability of the crystalline form E and other crystalline forms (storage, total impurity and content)
Assay type: physicochemical
Conditions: for Stability compared between solid forms (conclusion from Table 5): stored 1 year at 6° C. and −20° C.
Description: Comparative tests for stability of the crystalline form E and other crystalline forms. Crystalline form A and crystalline form B of ertapenem sodium were prepared according to the methods disclosed in WO03026572, crystalline form C of ertapenem sodium was prepared according to the method disclosed in WO03027067, crystalline form D of ertapenem sodium was prepared according to the method disclosed in WO2009150630, and amorphous product of ertapenem sodium was prepared according the method disclosed in CN1752090A. The above-mentioned crystalline forms A, B, C, D, the amorphous solid of ertapenem sodium, and the crystalline form E prepared according to Example 1 were stored for 1 year under refrigerating at 6° C. and freezing at −20° C., and were sampled at month 1, month 3, month 6, month 9, and month 12, respectively, and the total impurity and content of the reserved samples were tested, and the specific data are shown in Table 5: […]

| Compound | Content (Freezing −20° C., month 0) [%] | Total impurity (Freezing −20° C., month 0) [%] | Content (Freezing −20° C., month 3) [%] | Total impurity (Freezing −20° C., month 3) [%] | Content (Freezing −20° C., month 6) [%] | Total impurity (Freezing −20° C., month 6) [%] | Content (Freezing −20° C., month 9) [%] | Total impurity (Freezing −20° C., month 9) [%] | Content (Freezing −20° C., month 12) [%] | Total impurity (Freezing −20° C., month 12) [%] | Content (Refrigerating 6° C., month 0) [%] | Total impurity (Refrigerating 6° C., month 0) [%] | Content (Refrigerating 6° C., month 3) [%] | Total impurity (Refrigerating 6° C., month 3) [%] | Content (Refrigerating 6° C., month 6) [%] | Total impurity (Refrigerating 6° C., month 6) [%] | Content (Refrigerating 6° C., month 9) [%] | Total impurity (Refrigerating 6° C., month 9) [%] | Content (Refrigerating 6° C., month 12) [%] | Total impurity (Refrigerating 6° C., month 12) [%] | other results |
| --- | --- | --- | --- | --- | --- | --- | --- | --- | --- | --- | --- | --- | --- | --- | --- | --- | --- | --- | --- | --- | --- |
| C[C@@H](O)[C@H]1C(=O)N2C(C(=O)[O-])=C(S[C@@H]3CN[C@H](C(=O)Nc4cccc(C(=O)O)c4)C3)[C@H](C)[C@H]12.[Na+] [Crystalline form C, ertapenem sodium] | 99.2 | 0.8 | 99.2 | 0.8 | 99.1 | 0.8 | 99.2 | 0.8 | 99.2 | 0.8 | 99.2 | 0.8 | 98.7 | 1.1 | 98.2 | 1.4 | 97.8 | 1.9 | 96.9 | 3.0 | Stability compared between solid forms (conclusion from Table 5): comparable stability, which is more stable than the amorphous product and the crystalline form D |
| C[C@@H](O)[C@H]1C(=O)N2C(C(=O)[O-])=C(S[C@@H]3CN[C@H](C(=O)Nc4cccc(C(=O)O)c4)C3)[C@H](C)[C@H]12.[Na+] [Crystalline form B, ertapenem sodium] | 99.1 | 0.8 | 99.1 | 0.8 | 99.0 | 0.9 | 99.0 | 0.8 | 98.9 | 0.9 | 99.1 | 0.8 | 98.3 | 1.4 | 98.0 | 1.7 | 97.5 | 2.1 | 96.6 | 3.3 | Stability compared between solid forms (conclusion from Table 5): comparable stability, which is more stable than the amorphous product and the crystalline form D |
| C[C@@H](O)[C@H]1C(=O)N2C(C(=O)[O-])=C(S[C@@H]3CN[C@H](C(=O)Nc4cccc(C(=O)O)c4)C3)[C@H](C)[C@H]12.[Na+] (relative stereo) [Crystalline form E, (1R,5S,6S,8R,2S*,4S*)-2-[2-[(3-carboxyphenyl)carbamoyl]-pyrrolidinyl-4-thio]-6-(1-hydroxyethyl)-1-methylcarbapenem-3-carboxylic acid monosodium salt] | 99.1 | 0.8 | 99.0 | 0.8 | 99.1 | 0.8 | 99.0 | 0.8 | 98.9 | 0.8 | 99.1 | 0.8 | 98.5 | 1.3 | 98.1 | 1.6 | 97.5 | 2.1 | 96.8 | 3.2 | Stability compared between solid forms (conclusion from Table 5): comparable stability, which is more stable than the amorphous product and the crystalline form D |
| C[C@@H](O)[C@H]1C(=O)N2C(C(=O)[O-])=C(S[C@@H]3CN[C@H](C(=O)Nc4cccc(C(=O)O)c4)C3)[C@H](C)[C@H]12.[Na+] [Amorphous, ertapenem sodium] | 98.5 | 1.2 | 98.4 | 1.2 | 98.5 | 1.3 | 98.2 | 1.5 | 98.1 | 1.7 | 98.5 | 1.2 | 97.9 | 2.1 | 94.5 | 5.3 | 92.3 | 7.1 | 90.1 | 9.3 |  |
| C[C@@H](O)[C@H]1C(=O)N2C(C(=O)[O-])=C(S[C@@H]3CN[C@H](C(=O)Nc4cccc(C(=O)O)c4)C3)[C@H](C)[C@H]12.[Na+] [Crystalline form A, ertapenem sodium] | 99.2 | 0.7 | 99.2 | 0.7 | 99.1 | 0.7 | 99.2 | 0.7 | 99.1 | 0.7 | 99.2 | 0.7 | 98.6 | 1.2 | 98.1 | 1.5 | 97.6 | 2.0 | 96.9 | 3.0 | Stability compared between solid forms (conclusion from Table 5): comparable stability, which is more stable than the amorphous product and the crystalline form D |
| C[C@@H](O)[C@H]1C(=O)N2C(C(=O)[O-])=C(S[C@@H]3CN[C@H](C(=O)Nc4cccc(C(=O)O)c4)C3)[C@H](C)[C@H]12.[Na+] [Crystalline form D, ertapenem sodium] | 98.8 | 1.0 | 98.7 | 1.1 | 98.7 | 1.1 | 98.6 | 1.2 | 98.5 | 1.2 | 98.8 | 1.0 | 98.0 | 1.9 | 96.8 | 3.1 | 94.7 | 4.6 | 93.2 | 6.5 |  |
